{"source": "patent US11353448B2", "about": "“Methods and compositions for quantifying metabolites and proteins from single cells” (CALIFORNIA INSTITUTE OF TECHNOLOGY, priority 2015, dated 2022)", "key": {"[1]": {"tested_on": "U87 cells", "experiment": "Glutamine kit assay (Abcam, ab83389), cells incubated with Compound 3", "assay_type": "cell-based, human", "details": "U87 cells alone vs incubated with Compound 3"}, "[2]": {"tested_on": "U87/EGFRV3 cells", "experiment": "Glutamine analog uptake (Cyclodextrin-Cy3 / Adamantane-BHQ2 FRET readout)", "assay_type": "cell-based, human", "details": "1 mM analog, 20 min; with glutamine at 4° C. and 37° C., without glutamine at 37° C.", "procedure": "FIG. 5B is a graph of cell uptake experiments using the immunofluorescence assay depicted in FIG. 2C to assay Compounds 1-8 as shown in FIG. 5A in the presence of glutamine at 4° C. (left bars) and 37° C. (middle bars), and in the absence of glutamine at 37° C. (right bars), according to embodiments of the present invention.\nU87/EGFRV3 single cells were resuspended in DMEM media or glutamine-free DMEM media (Thermo Fisher Scientific) with 1 mM of glutamine analog and incubated at 37° C. or 4° C. for 20 min. Subsequently, the cells were collected via centrifugation (500 g, 5 min) and washed with cold PBS for three times. Then, the cells were lysed using cell lysis buffer (Cell Signaling, Boston, Mass., U.S.A.). To quantify the analog uptake, the lysate was mixed with an Adamantane-BHQ2 solution (100 nM in water) incubated on the glass slide with surface hybridized Cyclodextrin-Cy3-DNA at room temperature for 1 hr. the glass slide was then washed and spin dried. The fluorescence signal on the glass slide was read out using an Axon GenePix 4400A scanner."}, "[3]": {"target": "T1, SLC1A5 neutral amino acid transporter (Homo sapiens, UniProt Q15758)", "T1 construct": "Compound 3 was further analyzed for uptake in U87 cells; endogenous in cells; host or cells: U87 (U87/EGFRV3) glioblastoma cells", "T1 sequence (Q15758 1-541)": "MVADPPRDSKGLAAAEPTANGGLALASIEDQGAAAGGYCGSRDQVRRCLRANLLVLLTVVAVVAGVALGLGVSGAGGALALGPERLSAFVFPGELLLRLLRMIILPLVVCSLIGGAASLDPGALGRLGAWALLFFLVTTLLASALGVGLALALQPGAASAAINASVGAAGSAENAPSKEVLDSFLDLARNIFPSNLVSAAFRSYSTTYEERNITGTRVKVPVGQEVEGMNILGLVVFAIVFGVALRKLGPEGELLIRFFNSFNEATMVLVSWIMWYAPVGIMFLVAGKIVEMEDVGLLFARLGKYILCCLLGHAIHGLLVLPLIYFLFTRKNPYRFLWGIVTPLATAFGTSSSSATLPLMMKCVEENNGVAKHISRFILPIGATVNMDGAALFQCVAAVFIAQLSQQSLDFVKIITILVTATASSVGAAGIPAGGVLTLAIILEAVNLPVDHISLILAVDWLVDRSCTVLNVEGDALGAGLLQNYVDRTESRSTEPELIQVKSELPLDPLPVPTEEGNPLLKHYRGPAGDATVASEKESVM", "experiment": "Uptake of Compound 3 with the SLC1A5 transporter inhibited (sodium free, siRNA)", "assay_type": "cell-based", "details": "U87 cells", "procedure": "In some embodiments of the present invention, a method for measuring glutamine uptake in a cell includes incubating the cell with a glutamine analog, followed by lysis of the cell, and quantification of the amount of the glutamine analog in the cell. […] These 8 glutamine analogs (adamantane conjugates) were assayed for their ability to substitute for glutamine. […] As such, the Compound 3 Ad-Glutamine analog is a validated substitute for glutamine."}, "[4]": {"tested_on": "cell growth", "experiment": "Cell toxicity of Compound 3 Ad-Glutamine analog (cell numbers normalized to control)", "assay_type": "cell-based", "details": "indicated concentrations, FIG. 5F", "source_text": "FIG. 5F is a graph showing cell toxicity of the Compound 3-Ad-Glutamine analog at the indicated concentrations with cell numbers normalized to the control sample, according to embodiments of the present invention."}, "[5]": {"tested_on": "hexokinase", "experiment": "Coupled enzyme kinetics measurement (hexokinase/G6PDH, NADH absorption at 340 nm)", "assay_type": "biochemical", "source_text": "Enzymes and substrate solutions from a glucose assay kit (Sigma-Aldrich) were used without purification. […] First, hexokinase converts glucose into glucose-6-phosphate, which consumes one equivalent of ATP. Then, the glucose-6-phosphate is converted to gluconate-6-phosphate by glucose-6-phosphate dehydrogenase (G6PDH). At the same time, this process converts NAD to NADH, which has a distinct absorption band at 340 nm. By continuously measuring the solution absorption, the kinetics of the first reaction can be indirectly monitored. […] This will result in a much slower generation of NADH. […] This proves that Gluc-Bio can bind to hexokinase and could be a substrate. […] In this experiment, the amount of ATP was controlled to be much less than that of glucose. If Gluc-Bio is simply an inhibitor and cannot be converted by hexokinase, it will not consume the ATP pool in the solution, and the final amount of NADH will be the same as that of glucose alone."}, "[6]": {"tested_on": "GBM39 single cells", "experiment": "Validation of the Gluc-Bio uptake", "assay_type": "cell-based, human", "details": "20 ug/mL Gluc-Bio, 20 min; 17.5 mM vs 25 mM glucose; 37° C. vs 4° C.", "procedure": "FIG. 4C is a graph of cell uptake experiments using the immunofluorescence assay depicted in FIG. 2B to assay Gluc-Bio uptake in GBM39 primary neurosphere cells at 37° C. in the presence of […] glucose and 25 mM glucose, and at 4° C. at 17.5 mM glucose as indicated, showing that Gluc-Bio competes with glucose, according to embodiments of the present invention.\nGBM39 single cells were suspended in normal media (17.5 mM glucose) or high glucose media (25 mM glucose) at a concentration of 0.5 M cells/mL. These cells were incubated with 20 ug/mL of Gluc-Bio at 37° C. or 4° C. for 20 min. After incubation, cells were washed with cold PBS for three times and then lysed for quantifying the Gluc-Bio."}, "[7]": {"tested_on": "U87EGFRvIII cells", "experiment": "Growth curves under erlotinib", "assay_type": "cell-based, human", "details": "1 uM erlotinib", "source_text": "U87/EGFRV3 cells were provided by Prof."}, "[8]": {"tested_on": "GBM39 cells", "experiment": "SCBC multiplex metabolite/protein assay before and after erlotinib", "assay_type": "cell-based, human", "details": "24 h erlotinib treatment (1 μM)", "protocol": "Using a SCBC as shown in FIGS. 1A and 1B and further disclosed herein, simultaneous quantification of a panel of metabolites and proteins, including cAMP, cGMP, glucose uptake, glutathione along with phosphofructokinase (PFK), phospho-acetyl-CoA Caraboxylase (pACAC), phospho-liver kinase B1 (pLKB1), phosphoinositide-dependent kinase 1 (PDK), hexokinase 2 (HK2), pyruvate kinase M2 (PKM2), and phospho-carbohydrate kinase family protein (pPFKB2) was performed in single cells separated from the GBM39 neurosphere tumor model. […] For the drug treatment, 1 million cells were suspended in 10 mL of media and were cultured for several days to form neurospheres. […] The cells were then treated for designated periods of time and processed for tests. Cell loading. The upper channels were briefly rinsed with cell culture medium to minimize perturbation to the cells. […] The suspension was loaded into the SCBC device and compartmentalized into 310 isolated microchambers with single cell or defined number of cells in each chamber. The cell loading step results in a random distribution of different numbers of cells in different chambers, the statistical distribution can be adjusted by varying the loading concentration and the flow speed. […] The extra cells were washed away by 1×PBST. The images of each chamber were recorded using a microscope-CCD camera and used for subsequent cell counting."}, "[9]": {"tested_on": "U87EGFRvIII cells", "procedure": "A multiplex assay incorporating the glutamine uptake assay according to embodiments of the present invention was performed using a SCBC platform in U87 human glioblastoma cells having amplified epidermal growth factor receptor (EGFR) expression.\nU87/EGFRV3 cells were provided by Prof. Paul S. Mischel (UCSD, San Diego, U.S.A.) and cultured in Dulbecco's modified eagle media (DMEM, Gibco, ThermoFisher Scientific, Grand Island, N.Y., U.S.A.) supplemented with 10% of fetal bovine serum (Thermo Fisher Scientific) and 100 U/mL of penicillin and streptomycin in a humidified 5% CO2 (v/v) incubator, at 37° C.\nIn order to better understand the integrated single cell metabolic/proteomic data, a simplified semi-quantitative metabolic model (FIG. 16A) was developed. The focus of this model includes the glycolysis pathway and the TCA cycle, which cover the major contributors of cellular energy generation. Glucose is used by cells for many tasks, but by combining the measurement of glucose uptake with measurements of those enzymes that process glucose for energy production and lactate production, an estimation may be made of the contributions of glucose to glycolysis and to the TCA cycle (FIGS. 16A-16B). It assumed that each glucose molecule consumed yields 8 ATP equivalents through glycolysis, and an additional 22 ATP equivalents through the TCA cycle. The numbers here are not the actual ATP production number, but an energy-currency conversion. The glycolysis part generates 2 ATP and 2 NADH molecules per glucose, and each NADH is ultimately worth 3 ATP, thus making 8 ATP total. […] For glutamine that is taken up by the cell, there are multiple possible outcomes. It can enter the TCA cycle to generate energy, or it can be exported in exchange for other amino acids, or participate in biosynthesis of glutathione and proteins, as examples. On this basis, glutamine may be considered as a special currency, which can either be used directly by the cell to produce energy, or in exchange of other necessary nutrients or to perform some crucial metabolic function. From a global point of view, the active uptake of glutamine reflects a metabolic demand from the cell, regardless how it is used. In order to have an integrated picture of the potential energy production from glutamine and glucose, we simply assume that all glutamine participates in the TCA cycle, so that each glutamine molecule affords 8.5 ATP equivalents. To calculate the energy production for each pathway, glucose and glutamine uptake levels as well as related metabolic enzyme levels are normalized into the range between 0 and 1 across all samples. Subsequently, the normalized analyte levels (a) were used and a steady-state approximation (FIG. 16E) to calculate the energy production rate for each step (FIG. 16B). Several energy indices were defined based on the model. The energy production index (EPI) assesses the total energy production rate through glucose and glutamine metabolism, while the energy source index (ESI) measures the energy contribution ratio between glucose and glutamine. The glycolysis index (GI) weighs the contribution of glycolysis in total glucose-based energy production, and depends upon glucose uptake, as well as the levels of phosphofructokinase (PFK) and pyruvate kinase isozyme M2 (PKM2). In addition to the energy indices, we use the cAMP and cGMP levels to define an energy frustration index (EFI), and use the GSH level to define a redox frustration index (RFI)."}}, "note": "Entries after “also recorded” stand apart in the source; their conditions may differ. Like-named read-outs stand apart in the source and are kept apart here."}
{"compound": "NC(CCCNC(=O)C12CC3CC(CC(C3)C1)C2)C(=O)O", "note": "(stereo not drawn) [Compound 3, 5-(adamantane-1-carboxamido)-2-aminopentanoic acid]", "values": [{"measurement": "competition with cellular glutamine (absorbance)", "setting": "[1]", "value": "competes with the cellular glutamine"}, {"measurement": "cell uptake of glutamine analog: dependence on temperature and on glutamine", "setting": "[2]", "value": "temperature-dependency and glutamine-dependency"}, {"measurement": "cell uptake of Compound 3", "setting": "[3]; siRNA knock-down of SLC1A5", "value": "inhibition of cell uptake"}, {"measurement": "Compound 3 fluorescence (uptake)", "setting": "[3]; sodium free conditions", "value": "inhibition of Compound 3 fluorescence (uptake)"}, {"measurement": "cell growth / cell toxicity", "setting": "[4]", "value": "does not inhibit cell growth"}]}
{"compound": "N[C@@H](CC(=O)NC12CC3CC(CC(C3)C1)C2)C(=O)O", "note": "[Compound 8, N4-(adamantan-1-yl)asparagine]", "values": [{"measurement": "cell uptake of glutamine analog: dependence on temperature and on glutamine", "setting": "[2]", "value": "temperature-dependency and glutamine-dependency"}]}
{"compound": "O=C(CCCC[C@@H]1SC[C@@H]2NC(=O)N[C@@H]21)N[C@H]1C(O)O[C@H](CO)[C@@H](O)[C@@H]1O", "note": "(stereo partly drawn) [Gluc-Bio]", "values": [{"measurement": "generation of NADH in the presence of Gluc-Bio", "setting": "[5]; 0.5 mM glucose and 0.5 mM Gluc-Bio vs 0.5 mM glucose alone", "value": "much slower than that of glucose alone"}, {"measurement": "final amount of NADH generated", "setting": "[5]; ATP much less than glucose, addition of Gluc-Bio", "value": "less NADH was generated"}, {"measurement": "substrate for hexokinase", "setting": "[5]; conclusion from both experiments", "value": "is a substrate for hexokinase"}, {"measurement": "uptake of Gluc-Bio", "setting": "[6]", "value": "inhibited by increasing the extracellular glucose concentration and by decreasing the temperature"}]}
{"compound": "C#Cc1cccc(Nc2ncnc3cc(OCCOC)c(OCCOC)cc23)c1", "note": "[erlotinib]", "values": [{"measurement": "cell growth (number of cells as a function of days)", "setting": "[7]", "value": "not inhibited; also recorded: does not inhibit"}, {"measurement": "activities of HK2", "setting": "[8]", "value": "sharply reduced"}, {"measurement": "level of GSH", "setting": "[8]", "value": "sharply reduced"}, {"measurement": "level of glucose uptake", "setting": "[8]", "value": "sharply reduced"}, {"measurement": "glutamine uptake", "setting": "[9]; 1 uM erlotinib", "value": "increased"}, {"measurement": "glucose uptake", "setting": "[9]; 1 μM erlotinib", "value": "repressed"}, {"measurement": "levels of PFK and PKM2", "setting": "[9]; 1 μM erlotinib", "value": "increased"}, {"measurement": "glucose uptake", "setting": "[9]; higher dose erlotinib (10 μM)", "value": "decreased"}, {"measurement": "glutamine uptake", "setting": "[9]; higher dose erlotinib (10 μM)", "value": "decreased"}, {"measurement": "metabolic enzymes", "setting": "[9]; higher dose erlotinib (10 μM)", "value": "repressed"}, {"measurement": "cellular energy production (EPI)", "setting": "[9]; higher drug concentration (10 μM)", "value": "inhibits cellular energy production"}]}
